# According to PubChem BioAssay (NCI):
#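 Abbreviation: GI50, concentration required for 50% inhibition of growth. At the TGI there is no net growth.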
# Legend:
# Assay in all cases: NCI anticancer screen, dose series, 384-well format
# 786-0 renal = tested on: 786-0 renal
# A498 renal = tested on: A498 renal
# A549 NSCLC = tested on: A549 NSCLC
# ACHN renal = tested on: ACHN renal
# BT-549 breast = tested on: BT-549 breast
# CAKI-1 renal = tested on: CAKI-1 renal
# CCRF-CEM leukemia = tested on: CCRF-CEM leukemia
# COLO 205 colon = tested on: COLO 205 colon
# DU-145 prostate = tested on: DU-145 prostate
# EKVX NSCLC = tested on: EKVX NSCLC
# HCC-2998 colon = tested on: HCC-2998 colon
# HCT-116 colon = tested on: HCT-116 colon
# HCT-15 colon = tested on: HCT-15 colon
# HL-60(TB) leukemia = tested on: HL-60(TB) leukemia
# HOP-62 NSCLC = tested on: HOP-62 NSCLC
# HOP-92 NSCLC = tested on: HOP-92 NSCLC
# HS 578T breast = tested on: HS 578T breast
# HT29 colon = tested on: HT29 colon
# IGROV1 ovarian = tested on: IGROV1 ovarian
# K-562 leukemia = tested on: K-562 leukemia
# KM12 colon = tested on: KM12 colon
# LOX IMVI melanoma = tested on: LOX IMVI melanoma
# M14 melanoma = tested on: M14 melanoma
# MALME-3M melanoma = tested on: MALME-3M melanoma
# MCF7 breast = tested on: MCF7 breast
# MDA-MB-231 breast = tested on: MDA-MB-231 breast
# MDA-MB-435 melanoma = tested on: MDA-MB-435 melanoma
# MDA-MB-468 breast = tested on: MDA-MB-468 breast
# MOLT-4 leukemia = tested on: MOLT-4 leukemia
# NCI-H226 lung = tested on: NCI-H226 lung
# NCI-H23 lung = tested on: NCI-H23 lung
# NCI-H322M lung = tested on: NCI-H322M lung
# NCI-H460 NSCLC = tested on: NCI-H460 NSCLC
# NCI-H522 lung = tested on: NCI-H522 lung
# NCI/ADR-RES ovarian = tested on: NCI/ADR-RES ovarian
# OVCAR-3 ovarian = tested on: OVCAR-3 ovarian
# OVCAR-4 ovarian = tested on: OVCAR-4 ovarian
# OVCAR-5 ovarian = tested on: OVCAR-5 ovarian
# OVCAR-8 ovarian = tested on: OVCAR-8 ovarian
# PC-3 prostate = tested on: PC-3 prostate
# RPMI-8226 leukemia = tested on: RPMI-8226 leukemia
# RXF 393 renal = tested on: RXF 393 renal
# SF-268 CNS = tested on: SF-268 CNS
# SF-295 CNS = tested on: SF-295 CNS
# SF-539 CNS = tested on: SF-539 CNS
# SK-MEL-2 melanoma = tested on: SK-MEL-2 melanoma
# SK-MEL-28 melanoma = tested on: SK-MEL-28 melanoma
# SK-MEL-5 melanoma = tested on: SK-MEL-5 melanoma
# SK-OV-3 ovarian = tested on: SK-OV-3 ovarian
# SN12C renal = tested on: SN12C renal
# SNB-19 CNS = tested on: SNB-19 CNS
# SNB-75 CNS = tested on: SNB-75 CNS
# SW-620 colon = tested on: SW-620 colon
# T-47D breast = tested on: T-47D breast
# TK-10 renal = tested on: TK-10 renal
# U251 glioblastoma = tested on: U251 glioblastoma
# UACC-257 melanoma = tested on: UACC-257 melanoma
# UACC-62 melanoma = tested on: UACC-62 melanoma
# UO-31 renal = tested on: UO-31 renal
smiles,measurement,setting,value
C[C@@H]1Cc2c([nH]c3ccccc23)[C@@H](c2c(F)cc(/C=C/C(=O)O)cc2F)N1CC(C)(C)F,GI50,786-0 renal,14.1 µM
same,TGI,786-0 renal,27.7 µM
same,GI50,A498 renal,13.7 µM
same,TGI,A498 renal,32.4 µM
same,GI50,A549 NSCLC,11.6 µM
same,TGI,A549 NSCLC,24.5 µM
same,GI50,ACHN renal,17.7 µM
same,TGI,ACHN renal,35.2 µM
same,GI50,BT-549 breast,15.6 µM
same,TGI,BT-549 breast,29.2 µM
same,GI50,CAKI-1 renal,17.1 µM
same,TGI,CAKI-1 renal,32.7 µM
same,GI50,CCRF-CEM leukemia,13 µM
same,TGI,CCRF-CEM leukemia,25.8 µM
same,GI50,COLO 205 colon,17.7 µM
same,TGI,COLO 205 colon,39.3 µM
same,GI50,DU-145 prostate,15.9 µM
same,TGI,DU-145 prostate,35.5 µM
same,GI50,EKVX NSCLC,15.6 µM
same,TGI,EKVX NSCLC,31.4 µM
same,GI50,HCC-2998 colon,15.3 µM
same,TGI,HCC-2998 colon,28.7 µM
same,GI50,HCT-116 colon,14.7 µM
same,TGI,HCT-116 colon,28.3 µM
same,GI50,HCT-15 colon,14.3 µM
same,TGI,HCT-15 colon,27.8 µM
same,GI50,HL-60(TB) leukemia,17 µM
same,TGI,HL-60(TB) leukemia,30.8 µM
same,GI50,HOP-62 NSCLC,10.2 µM
same,TGI,HOP-62 NSCLC,22.1 µM
same,GI50,HOP-92 NSCLC,14.5 µM
same,TGI,HOP-92 NSCLC,28 µM
same,GI50,HS 578T breast,14 µM
same,TGI,HS 578T breast,27 µM
same,GI50,HT29 colon,15.2 µM
same,TGI,HT29 colon,28.8 µM
same,GI50,IGROV1 ovarian,16.4 µM
same,TGI,IGROV1 ovarian,31.4 µM
same,GI50,K-562 leukemia,15.4 µM
same,TGI,K-562 leukemia,29.3 µM
same,GI50,KM12 colon,16.5 µM
same,TGI,KM12 colon,30.5 µM
same,GI50,LOX IMVI melanoma,17.2 µM
same,TGI,LOX IMVI melanoma,31.2 µM
same,GI50,M14 melanoma,15.7 µM
same,TGI,M14 melanoma,29.3 µM
same,GI50,MALME-3M melanoma,14.5 µM
same,TGI,MALME-3M melanoma,27.9 µM
same,TGI,MCF7 breast,18.9 µM
same,GI50,MDA-MB-231 breast,17.5 µM
same,TGI,MDA-MB-231 breast,31.6 µM
same,GI50,MDA-MB-435 melanoma,18.4 µM
same,TGI,MDA-MB-435 melanoma,32.9 µM
same,GI50,MDA-MB-468 breast,20.4 µM
same,TGI,MDA-MB-468 breast,40.2 µM
same,GI50,MOLT-4 leukemia,11.8 µM
same,TGI,MOLT-4 leukemia,24.1 µM
same,GI50,NCI-H226 lung,17.4 µM
same,TGI,NCI-H226 lung,32.6 µM
same,GI50,NCI-H23 lung,15.4 µM
same,TGI,NCI-H23 lung,29 µM
same,GI50,NCI-H322M lung,17.9 µM
same,TGI,NCI-H322M lung,38.1 µM
same,GI50,NCI-H460 NSCLC,15.3 µM
same,TGI,NCI-H460 NSCLC,29 µM
same,GI50,NCI-H522 lung,16.8 µM
same,TGI,NCI-H522 lung,30.8 µM
same,GI50,NCI/ADR-RES ovarian,16.8 µM
same,TGI,NCI/ADR-RES ovarian,32 µM
same,GI50,OVCAR-3 ovarian,13.3 µM
same,TGI,OVCAR-3 ovarian,26.2 µM
same,GI50,OVCAR-4 ovarian,12.8 µM
same,TGI,OVCAR-4 ovarian,33.5 µM
same,GI50,OVCAR-5 ovarian,19.2 µM
same,TGI,OVCAR-5 ovarian,34.3 µM
same,GI50,OVCAR-8 ovarian,14.9 µM
same,TGI,OVCAR-8 ovarian,28.6 µM
same,GI50,PC-3 prostate,13.4 µM
same,TGI,PC-3 prostate,26.6 µM
same,GI50,RPMI-8226 leukemia,11.4 µM
same,TGI,RPMI-8226 leukemia,23.6 µM
same,GI50,RXF 393 renal,18.5 µM
same,TGI,RXF 393 renal,32.6 µM
same,GI50,SF-268 CNS,16.3 µM
same,TGI,SF-268 CNS,30.9 µM
same,GI50,SF-295 CNS,16.4 µM
same,TGI,SF-295 CNS,30.5 µM
same,GI50,SF-539 CNS,15 µM
same,TGI,SF-539 CNS,28.4 µM
same,GI50,SK-MEL-2 melanoma,19.7 µM
same,TGI,SK-MEL-2 melanoma,34.2 µM
same,GI50,SK-MEL-28 melanoma,17.4 µM
same,TGI,SK-MEL-28 melanoma,31.4 µM
same,GI50,SK-MEL-5 melanoma,13.9 µM
same,TGI,SK-MEL-5 melanoma,27.2 µM
same,GI50,SK-OV-3 ovarian,19.4 µM
same,TGI,SK-OV-3 ovarian,39.2 µM
same,GI50,SN12C renal,17.3 µM
same,TGI,SN12C renal,32.3 µM
same,GI50,SNB-19 CNS,15.5 µM
same,TGI,SNB-19 CNS,32.2 µM
same,GI50,SNB-75 CNS,17.5 µM
same,TGI,SNB-75 CNS,33.1 µM
same,GI50,SW-620 colon,16 µM
same,TGI,SW-620 colon,29.7 µM
same,GI50,T-47D breast,10.7 µM
same,TGI,T-47D breast,32.5 µM
same,GI50,TK-10 renal,17.7 µM
same,TGI,TK-10 renal,35.2 µM
same,GI50,U251 glioblastoma,11.9 µM
same,TGI,U251 glioblastoma,24.4 µM
same,GI50,UACC-257 melanoma,17.9 µM
same,TGI,UACC-257 melanoma,33.4 µM
same,GI50,UACC-62 melanoma,15.7 µM
same,TGI,UACC-62 melanoma,29.4 µM
same,GI50,UO-31 renal,13.9 µM
same,TGI,UO-31 renal,27.1 µM
O=C(O)CCCc1ccc(N(CCCl)CCCl)cc1,GI50,786-0 renal,24.3 µM
same,GI50,A549 NSCLC,33.3 µM
same,GI50,ACHN renal,8.31 µM
same,TGI,ACHN renal,35 µM
same,GI50,BT-549 breast,14.1 µM
same,GI50,CAKI-1 renal,8.78 µM
same,GI50,CCRF-CEM leukemia,3.29 µM
same,TGI,CCRF-CEM leukemia,8.55 µM
same,GI50,DU-145 prostate,27.3 µM
same,TGI,DU-145 prostate,99.4 µM
same,GI50,HCT-116 colon,28.4 µM
same,GI50,HCT-15 colon,23.7 µM
same,GI50,HL-60(TB) leukemia,1.64 µM
same,TGI,HL-60(TB) leukemia,3.75 µM
same,GI50,HOP-62 NSCLC,13.6 µM
same,TGI,HOP-62 NSCLC,45.8 µM
same,GI50,HOP-92 NSCLC,25.3 µM
same,GI50,HT29 colon,51.9 µM
same,GI50,K-562 leukemia,41.6 µM
same,GI50,LOX IMVI melanoma,30.4 µM
same,GI50,M14 melanoma,19.5 µM
same,GI50,MALME-3M melanoma,29.9 µM
same,GI50,MCF7 breast,41 µM
same,GI50,MDA-MB-231 breast,84.7 µM
same,GI50,MDA-MB-468 breast,4.37 µM
same,TGI,MDA-MB-468 breast,21.4 µM
same,GI50,MOLT-4 leukemia,1.26 µM
same,TGI,MOLT-4 leukemia,2.52 µM
same,GI50,NCI-H23 lung,19.4 µM
same,TGI,NCI-H23 lung,99.8 µM
same,GI50,NCI-H522 lung,13.3 µM
same,TGI,NCI-H522 lung,27.5 µM
same,GI50,NCI/ADR-RES ovarian,19.9 µM
same,GI50,OVCAR-3 ovarian,28.4 µM
same,GI50,OVCAR-5 ovarian,45.7 µM
same,GI50,OVCAR-8 ovarian,14.2 µM
same,GI50,RPMI-8226 leukemia,6.45 µM
same,TGI,RPMI-8226 leukemia,23.6 µM
same,GI50,RXF 393 renal,14.7 µM
same,TGI,RXF 393 renal,29.8 µM
same,GI50,SF-268 CNS,9.3 µM
same,GI50,SF-295 CNS,18.3 µM
same,TGI,SF-295 CNS,41.8 µM
same,GI50,SF-539 CNS,16.7 µM
same,TGI,SF-539 CNS,60 µM
same,GI50,SK-MEL-28 melanoma,57 µM
same,GI50,SK-OV-3 ovarian,41.1 µM
same,GI50,SN12C renal,10.4 µM
same,GI50,SNB-19 CNS,35.3 µM
same,GI50,SNB-75 CNS,19.8 µM
same,GI50,SW-620 colon,16.9 µM
same,GI50,T-47D breast,36 µM
same,GI50,U251 glioblastoma,11.6 µM
same,GI50,UACC-62 melanoma,12 µM
same,GI50,UO-31 renal,39.8 µM
